Test system: NCI-H295R
Test: IC50 (antiproliferative, ATP content)
Settings: 48 h
In short: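 Following overnight culture of adrenocortical carcinoma cells (1500 per well) in 1536-well plates with serum-free ITS-supplemented DMEM, library compounds were pin-transferred at 8 final concentrations from 0.6 nM to 46 µM. Incubation lasted 48 h at 37 °C, 5% CO2, and the CellTiter-Glo signal was read after 20 min at room temperature. Data were fitted with a four-parameter logistic model. Each IC50 came from that fit after normalisation to vehicle and positive-control wells, and compounds without a concentration response were reported as above the top dose.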

| SMILES | IC50 [µM] |
| --- | --- |
| CCOC(=O)CC(SP(=S)(OC)OC)C(=O)OCC (stereo not drawn) | > 46 |
| CN[C@@H]1[C@@H](O)[C@@H](O[C@@H]2[C@@H](O)[C@H](OC3OC(CN)=CCC3N)[C@@H](N)C[C@H]2N)OC[C@]1(C)O.CN[C@@H]1[C@@H](O)[C@@H](O[C@@H]2[C@@H](O)[C@H](OC3OC(CN)=CCC3N)[C@@H](N)C[C@H]2N)OC[C@]1(C)O.O=S(=O)(O)O.O=S(=O)(O)O.O=S(=O)(O)O.O=S(=O)(O)O.O=S(=O)(O)O (stereo partly drawn) | > 46 |
| Cc1ccccc1CNc1ncnc2c1ncn2[C@@H]1O[C@H](CO)[C@@H](O)[C@H]1O | > 46 |
| C[C@]12CCC(=O)C=C1CC[C@@H]1[C@@H]2[C@@H](O)C[C@@]2(C)[C@H]1CC[C@]2(O)C(=O)COP(=O)([O-])[O-].[Na+].[Na+] | > 46 |
| [H][C@]13[C@](O3)([H])[C@@H]2CC(OC(C(C4=CC=CS4)(C5=CC=CS5)O)=O)C[C@H]1[N@@+](C)2C.[Br-] (stereo partly drawn) | > 46 |
| COc1ccc(-c2noc(CC(=O)O)c2-c2ccc(OC)cc2)cc1 | > 46 |
| CCc1ccc(S(=O)(=O)O)cc1 | > 46 |
| O=C(CCCN1CCC(C(=O)c2ccc(F)cc2)CC1)c1ccc(F)cc1 | > 46 |
| CCN(CC)CCOC(=O)c1ccc(N)cc1.Cl | > 46 |
| FC(F)(F)C(F)(F)C(F)(F)C(F)(F)C(F)(F)C(F)(F)F | > 46 |
| CCCCCCCC/C=C\CCCCCCCCN | > 46 |
| COc1cc(C(=O)NCc2ccc(OCCN(C)C)cc2)cc(OC)c1OC.Cl | > 46 |
| CCCCCCCC(=O)OCC(O)CO (stereo not drawn) | > 46 |
| CN1CCN(C(=O)C2CCCCC2)CC1 | > 46 |
| CCCCCc1ccc(C)cc1O | > 46 |
| CCN(CC)CC1CCCCN1CC(=O)N1c2ccccc2C(=O)Nc2cccnc21 (stereo not drawn) | > 46 |
| c1ccc2c(c1)OCC(CN1CCCCC1)O2 (stereo not drawn) | > 46 |
| CC1(c2ccccc2)OC(C(=O)O)=CC1=O (stereo not drawn) | > 46 |
| COc1ccc2c(c1)N(C[C@H](C)CN(C)C)c1ccccc1S2.O=C(O)/C=C\C(=O)O | > 46 |
| CN(C)[C@@H]1C(O)=C(C(N)=O)C(=O)[C@@]2(O)C(O)=C3C(=O)c4c(O)ccc(Cl)c4[C@@H](O)[C@H]3C[C@@H]12.Cl | > 46 |
| CC(C)(C)NCC(O)CSc1nc(-c2ccc(C(N)=O)s2)cs1.Cl (stereo not drawn) | > 46 |
| N[C@H](C(=O)O)c1ccc(O)cc1 | > 46 |
| CCOC(=O)[C@H](CCc1ccccc1)N[C@@H](C)C(=O)N1Cc2ccccc2C[C@H]1C(=O)O.Cl | > 46 |

| SMILES | IC50 [µM] |
| --- | --- |
| O=[C@](COC(C)=O)[C@](CC4)(O)[C@]2(C)[C@]4([H])[C@]1([H])CCC([C@@](C=C3)(C)[C@]([H])1[C@@H](O)C2)=CC3=O | > 46 |
| CC(O)CO (stereo not drawn) | > 46 |
| CCN(CC)CCOc1ccccc1C(=O)CCc1ccccc1 | > 46 |
| CS(=O)(=O)Nc1cc2\C=C(/Nc2cc1)C(=O)N3CCN(CC3)c4ncccc4NC(C)C | > 46 |
| CCCC1C(=O)N2C(N(C)C)=Nc3ccc(C)cc3N2C1=O (stereo not drawn) | > 46 |
| CN1CCN2c3ncccc3Cc3ccccc3C2C1 (stereo not drawn) | > 46 |
| CC1CC(OC(=O)C(O)c2ccccc2)CC(C)(C)N1C.Cl (stereo not drawn) | > 46 |
| Cc1cccc(C)c1Nc1ncccc1C(=O)O | > 46 |
| CC(=O)c1ccc2c(c1)N(CCCN(C)C)c1ccccc1S2.O=C(O)/C=C/C(=O)O | > 46 |
| O=C1c2ccccc2CN2C(=O)c3ccccc3CN12 | > 46 |
| FC(F)(F)C(F)(F)C(F)(F)C(F)(F)C(F)(F)C(F)(F)C(F)(F)C(F)(F)Br | > 46 |
| N[C@@H](CCC(=O)N[C@@H](CS)C(=O)NCC(=O)O)C(=O)O | > 46 |
| CC(C)(C)C(=O)OCOC(=O)[C@@H]1N2C(=O)[C@@H](/N=C/N3CCCCCC3)[C@H]2SC1(C)C.Cl | > 46 |
| Cc1ncsc1CCCl | > 46 |
| C=CCN1CCc2nc(N)sc2CC1 | > 46 |
| CC(O)(P(=O)([O-])O)P(=O)([O-])O.[Na+].[Na+] | > 46 |
| O=[N+]([O-])O[C@H]1CO[C@H]2[C@@H]1OC[C@H]2O[N+](=O)[O-] | > 46 |
| CCOc1cc(CC(=O)N[C@@H](CC(C)C)c2ccccc2N2CCCCC2)ccc1C(=O)O | > 46 |
| CN(C)CCCN1c2ccccc2Sc2ccccc21.Cl | > 46 |
| Cc1cc(C(C)(C)C)c(O)c(C)c1CC1=NCCN1 | > 46 |
| CCOC(=O)C1=C(C)NC(C)=C(C(=O)OC)C1c1cccc(Cl)c1Cl (stereo not drawn) | > 46 |
| Cc1cn[nH]c1 | > 46 |
| CN1[C@@H](CC(=O)c2ccccc2)CCC[C@H]1C[C@H](O)c1ccccc1 | > 46 |

| SMILES | IC50 [µM] |
| --- | --- |
| CC(=O)Oc1cc(C(C)C)c(OCCN(C)C)cc1C.Cl | > 46 |
| CN(C)C(=O)Oc1cc(OC(=O)N(C)C)cc(C(O)CNC(C)(C)C)c1.Cl (stereo not drawn) | > 46 |
| CC(=O)NS(=O)(=O)c1ccc(N)cc1 | > 46 |
| COc1ccc(OC)c(C(O)CNC(=O)CN)c1.Cl (stereo not drawn) | > 46 |
| OCC(O)CO | > 46 |
| CCCCCCCCCCCCCCCCN | > 46 |
| CCCC[N@@+]1(C)[C@@H]2C[C@@H](OC(=O)[C@H](CO)c3ccccc3)C[C@H]1[C@@H]1O[C@@H]12.[Br-] | > 46 |
| CC1(C)S[C@@H]2[C@H](NC(=O)[C@H](NC(=O)N3CCN(S(C)(=O)=O)C3=O)c3ccccc3)C(=O)N2[C@H]1C(=O)O | > 46 |
| C[C@@H](O)[C@H]1C(=O)N2C(C(=O)O)=C(S[C@@H]3CN[C@H](C(=O)N(C)C)C3)[C@H](C)[C@H]12 | > 46 |
| CC(C)(C)NCC(O)c1ccc(O)c(CO)n1.Cl (stereo not drawn) | > 46 |
| O[C@@H]([C@H](O)[C@H](O)CBr)[C@H](O)CBr | > 46 |
| CC(=O)[C@H]2CC[C@H]3[C@@H]4\C=C/C1=C/C(=O)CC[C@@]1(C)[C@@H]4CC[C@]23C | > 46 |
| CO[C@H]1/C=C/O[C@@]2(C)Oc3c(C)c(O)c4c(O)c(cc([O-])c4c3C2=O)NC(=O)/C(C)=C\C=C\[C@H](C)[C@H](O)[C@@H](C)[C@@H](O)[C@@H](C)[C@H](OC(C)=O)[C@@H]1C.[Na+] | > 46 |
| CNC1=Nc2ccc(Cl)cc2C(c2ccccc2)=[N+]([O-])C1 | > 46 |
| Cl.NC1=NCC2c3ccccc3Cc3ccccc3N12 (stereo not drawn) | > 46 |
| Cc1nc2ccccn2c(=O)c1CCN1CCC(C(=O)c2ccc(F)cc2)CC1 | > 46 |
| CCCCCCCCCCCCCCCCCCO | > 46 |
| CN(C)CCCOc1nn(Cc2ccccc2)c2ccccc12.Cl | > 46 |
| CN1CCN(C2=Nc3cc(F)ccc3Cc3ccccc32)CC1 | > 46 |
| O=C1c2ccccc2-c2n[nH]c3cccc1c23 | > 46 |
| ClC3=C(C=CC5=C3)OC1=CC([C@@](C(N[C@@](C8=CC%11=C(O)C=C8)([H])C(N[C@H]([C@](N[C@@H]([C@@](O)=O)C%12=C%11C(O[C@H]%13O[C@H](CO)[C@@H](O)[C@H](O)[C@@H]%13O)=CC(O)=C%12)=O)[C@@H]5O[C@@]6([H])[C@H](NC(C)=O)[C@@H](O)[C@H](O)[C@@H](CO)O6)=O)=O)([H])NC([C@@](C9=CC(O)=CC(OC%10=C(O)C=CC([C@@H]%14N)=C%10)=C9)([H])NC([C@H](NC%14=O)C7)=O)=O)=CC(OC4=CC=C7C=C4Cl)=C1O[C@H]2[C@H](NC(CC\C=C/CCCCC)=O)[C@@H](O)[C@H](O)[C@@H](CO)O2 | > 46 |
| CC(O)COc1ccccc1 (stereo not drawn) | > 46 |
